Columns and labels:
[1] = tested on: Staphylococcus aureus (SA); assay: Take up of Tc-99m complexes by Staphylococcus aureus (SA), percentage radionuclide retained; type: cell-based; settings: for percent radionuclide retained in the microorganism: 4 hours' incubation, purified complexes
[2] = tested on: Pseudomonas aboubinoba (PA); assay: Take up of Tc-99m complexes by Pseudomonas aboubinoba (PA), percentage radionuclide retained; type: cell-based; settings: for percent radionuclide retained in the microorganism: 4 hours' incubation, purified complexes
Escherichia coli (EC) = assay: Take up of Tc-99m complexes by Escherichia coli (EC), percentage radionuclide retained; type: cell-based; settings: for percent radionuclide retained in the microorganism: 4 hours' incubation, purified complexes
[3] = Extent of complexation with Tc-99m prior to purification; type: physicochemical
Method: A further sample of Tc-99m-CIP complex was obtained as generally described in Example 1. Samples of Tc-99m complexed ofloxacin (obtained in powder form from Hoechst) and norfloxacin (obtained in powder form from Merck Sharpe & Dohme) were obtained as described for ciprofloxacin. Prior to purification, it was determined that the extent of complexation percent was as follows: […]

[4] = 2 hr. incubation, not further purified
[5] = 4 hr. incubation, not further purified
[6] = 21 hr. incubation, CIP not further purified

O=C(O)c1cn(C2CC2)c2cc(N3CCNCC3)c(F)cc2c1=O [Tc-99m-ciprofloxacin, metal not drawn]
percentage radionuclide retained in the microorganisms [1, 4]: 17.24 percentage | percent radionuclide retained in the microorganism [1]: 58.47% | percentage radionuclide retained in the microorganisms [1, 5]: 14.63 percentage | percentage radionuclide retained in the microorganisms [1, 6]: 15.08 percentage | percentage radionuclide retained in the microorganisms [2, 4]: 24.14 percentage | percent radionuclide retained in the microorganism [2]: 50.20% | percentage radionuclide retained in the microorganisms [2, 5]: 16.67 percentage | percentage radionuclide retained in the microorganisms [2, 6]: 21.32 percentage | percentage radionuclide retained in the microorganisms (Escherichia coli (EC); [4]): 15.78 percentage | percent radionuclide retained in the microorganism (Escherichia coli (EC)): 43.89% | percentage radionuclide retained in the microorganisms (Escherichia coli (EC); [5]): 11.72 percentage | percentage radionuclide retained in the microorganisms (Escherichia coli (EC); [6]): 12.90 percentage | extent of complexation percent [3]: 51.7%

CCn1cc(C(=O)O)c(=O)c2cc(F)c(N3CCNCC3)cc21 [norfloxacin]
percent radionuclide retained in the microorganism [1]: 37.86% | percent radionuclide retained in the microorganism [2]: 44.53% | percent radionuclide retained in the microorganism (Escherichia coli (EC)): 48.28% | extent of complexation percent [3]: 76.5%

CC1COc2c(N3CCN(C)CC3)c(F)cc3c(=O)c(C(=O)O)cn1c23 (stereo not drawn) [ofloxacin]
percent radionuclide retained in the microorganism [1]: 76.94% | percent radionuclide retained in the microorganism [2]: 79.39% | percent radionuclide retained in the microorganism (Escherichia coli (EC)): 77.95% | extent of complexation percent [3]: 88.5%
